Results from patent US9801901B2, “Alginate oligomers for use in overcoming multidrug resistance in bacteria” (priority 2009, dated 2017).
Values after ≈ are worked out from the molar mass of the structure shown. Like-named read-outs stand apart in the source and are kept apart here. Marks after values point to notes of the source that are not given here.

Legend:
[1] = tested on: PA01 Pseudomonas aeruginosa ATCC 15692; test: MIC assay, two-fold antibiotic dilutions in CAMHB with alginate oligomer, no visible growth; type: cell-based; details: Pseudomonas aeruginosa, ATCC15692, Table 1, PA01, read-out: MIC
[2] = tested on: Klebsiella pneumoniae KP05 506 from India (V3); test: MIC assay, CAMHB with alginate oligomer, no visible growth; type: cell-based; details: for MIC: Klebsiella pneumoniae, Table 1, V3 KP05 506, read-out: MIC
[3] = tested on: Acinetobacter baumannii MDR ACB from Libya (V4); test: as above; type: cell-based; details: for MIC: Acinetobacter baumannii, read-out: MIC
From the text: The study described in Example 1 was repeated with the following strains of bacteria and antibiotics as detailed in Tables 4, 5 and 6.
(§1) The study described in Example 1 was repeated with the following strains of Acinetobacter baumannii, antibiotics and M-block alginate oligomer in place of OligoG CF-5/20 as detailed in Table 7. The M-block oligomer is 100% M with a DPn of 15 to 18,

[4] = tested on: V10 (Egypt) Acinetobacter lwoffii; test: as above; type: cell-based; details: Table 5, V10 MDR Acin. lwoff
V11 5702 (Wales) E. coli = test: as above; type: cell-based; details: Table 5, V11 MDR E.coli
[5] = tested on: V23 1322 Burkholderia cepacia; test: as above; type: cell-based
[6] = tested on: V19 non MDR Acinetobacter baumannii; test: MIC assay, CAMHB with M-block alginate oligomer, no visible growth; type: cell-based; details: Table 7, V19 non MDR Acin. baum
From the text: as §1

MDR Pseudomonas strains = test: MIC assay of Example 1, summary over the MDR Pseudomonas strains; type: cell-based, Pseudomonas aeruginosa
[7] = tested on: Pseudomonas aeruginosa (MDR 301, PSA, V2); test: MIC-assay, Mueller-Hinton broth with G-block alginate, 384-well, OD600; details: Pseudomonas aeruginosa, Table 8; V2; G-block (OligoCF-5/20) 10%
[8] = tested on: Acinetobacter lwoffii (6056, V22); test: as above
[9] = tested on: Acinetobacter baumannii (Egypt, V9); test: as above
[10] = tested on: Acinetobacter lwoffii (Egypt, V10); test: as above
[11] = Table 9, G-block (OligoCF-5/20) 0%
[12] = Table 9, G-block (OligoCF-5/20) 2%
[13] = Table 9, G-block (OligoCF-5/20) 6%
[14] = Table 9, G-block (OligoCF-5/20) 10%

`C[C@H]1[C@H](NC(=O)/C(=N\OC(C)(C)C(=O)O)c2csc(N)n2)C(=O)N1S(=O)(=O)O` [Aztreonam] showed an MIC ([1]; OligoCF-5/20 0G) of 8 µg/mL (≈ 18.4 µM), an MIC ([1]; OligoCF-5/20 +2% G) of 16 µg/mL (≈ 36.7 µM) and an MIC ([1]; OligoCF-5/20 +6% G) of 4 µg/mL (≈ 9.19 µM). The MIC ([1]; OligoCF-5/20 +10% G) was 2 µg/mL (≈ 4.59 µM), the “effectiveness in conjunction with alginate oligomers” value ([2]; Example 1, KP05 506) was “more effective” and the MIC ([2]; OligoCF-5/20 0G) was 2050 µg/mL (≈ 4700 µM). For the same compound, the MIC ([2]; OligoCF-5/20 +2% G) was 2050 µg/mL (≈ 4700 µM), the MIC ([2]; OligoCF-5/20 +6% G) was 512 µg/mL (≈ 1180 µM) and the MIC ([2]; OligoCF-5/20 +10% G) was 256 µg/mL (≈ 588 µM). For the same compound, the MIC ([3]; Table 1, V4 ACB (Libya), OligoCF-5/20 0G) was 1020 µg/mL (≈ 2350 µM), the MIC ([3]; Table 1, V4 ACB (Libya), OligoCF-5/20 +2% G) was 512 µg/mL (≈ 1180 µM) and the MIC ([3]; Table 1, V4 ACB (Libya), OligoCF-5/20 +6% G) was 256 µg/mL (≈ 588 µM). It also gave an MIC ([3]; Table 1, V4 ACB (Libya), OligoCF-5/20 +10% G) of 128 µg/mL (≈ 294 µM), an MIC ([3]; Table 7, V4 MDR Acin baum (Libya), M-block oligomer 0M) of 2050 µg/mL (≈ 4700 µM) and an MIC ([3]; Table 7, V4 MDR Acin baum (Libya), M-block oligomer +2% M) of 512 µg/mL (≈ 1180 µM). The MIC ([3]; Table 7, V4 MDR Acin baum (Libya), M-block oligomer +6% M) was 256 µg/mL (≈ 588 µM), the MIC ([3]; Table 7, V4 MDR Acin baum (Libya), M-block oligomer +10% M) was 64 µg/mL (≈ 147 µM) and the “effect in combination with alginate oligomers” value ([3]; Example 1, Acinetobacter baumannii isolate) was “more positive effect”. The MIC ([4]; Acinetobacter lwoffii, OligoCF-5/20 0G, read-out: MIC) was 32 µg/mL (≈ 73.5 µM), the MIC ([4]; OligoCF-5/20 +2% G) was 16^† μg/ml and the MIC ([4]; OligoCF-5/20 +6% G) was 4^† μg/ml. The MIC ([4]; OligoCF-5/20 +10% G) was 1^† μg/ml, the MIC (V11 5702 (Wales) E. coli; Escherichia coli, OligoCF-5/20 0G, read-out: MIC) was 256 µg/mL (≈ 588 µM) and the MIC (V11 5702 (Wales) E. coli; OligoCF-5/20 +2% G) was 256 µg/mL (≈ 588 µM). For the same compound, the MIC (V11 5702 (Wales) E. coli; OligoCF-5/20 +6% G) was 256 µg/mL (≈ 588 µM), the MIC (V11 5702 (Wales) E. coli; OligoCF-5/20 +10% G) was 256 µg/mL (≈ 588 µM) and the MIC ([5]; Burkholderia cepacia, Table 5, V23 MDR Burk cep, OligoCF-5/20 0G, read-out: MIC) was > 512 µg/mL. The MIC ([5]; Burkholderia cepacia, Table 6, V23, Experiment 1 (18-03-10), OligoCF-5/20 0G, read-out: MIC) was > 4100 µg/mL, the MIC ([5]; Burkholderia cepacia, Table 6, V23, Experiment 2 (18-03-10), OligoCF-5/20 0G, read-out: MIC) was > 4100 µg/mL and the MIC ([5]; Burkholderia cepacia, Table 6, V23, Experiment 3 (19-03-10), OligoCF-5/20 0G, read-out: MIC) was > 4100 µg/mL. For the same compound, the MIC ([5]; Table 5, V23 MDR Burk cep, OligoCF-5/20 +2% G) was >512 µg/mL, the MIC ([5]; Table 5, V23 MDR Burk cep, OligoCF-5/20 +6% G) was 512^† μg/ml and the MIC ([5]; Table 5, V23 MDR Burk cep, OligoCF-5/20 +10% G) was 128^† μg/ml. The MIC ([5]; Table 6, V23, Experiment 1 (18-03-10), OligoCF-5/20 +2% G) was >4096 µg/mL, the MIC ([5]; Table 6, V23, Experiment 1 (18-03-10), OligoCF-5/20 +6% G) was 1024^† μg/ml and the MIC ([5]; Table 6, V23, Experiment 1 (18-03-10), OligoCF-5/20 +10% G) was 256^† μg/ml. For the same compound, the MIC ([5]; Table 6, V23, Experiment 2 (18-03-10), OligoCF-5/20 +2% G) was >4096 µg/mL, the MIC ([5]; Table 6, V23, Experiment 2 (18-03-10), OligoCF-5/20 +6% G) was 1024^† μg/ml and the MIC ([5]; Table 6, V23, Experiment 2 (18-03-10), OligoCF-5/20 +10% G) was 512^† μg/ml. The MIC ([5]; Table 6, V23, Experiment 3 (19-03-10), OligoCF-5/20 +2% G) was >4096 µg/mL, the MIC ([5]; Table 6, V23, Experiment 3 (19-03-10), OligoCF-5/20 +6% G) was 1024^† μg/ml and the MIC ([5]; Table 6, V23, Experiment 3 (19-03-10), OligoCF-5/20 +10% G) was 128^† μg/ml. It also gave an MIC ([6]; M-block oligomer 0M) of 64 µg/mL (≈ 147 µM), an MIC ([6]; M-block oligomer +2% M) of 32 µg/mL (≈ 73.5 µM) and an MIC ([6]; M-block oligomer +6% M) of 8 µg/mL (≈ 18.4 µM). For the same compound, the MIC ([6]; M-block oligomer +10% M) was 8 µg/mL (≈ 18.4 µM), the “effectiveness when used in combination with the alginate oligomers” value (MDR Pseudomonas strains) was “more effective” and the MIC [7] was 0.0625 µg/mL (≈ 0.144 µM). It also gave an MIC [8, 11] of 64 µg/mL (≈ 147 µM), an MIC [8, 12] of 32 µg/mL (≈ 73.5 µM) and an MIC [8, 13] of 16 µg/mL (≈ 36.7 µM). For the same compound, the MIC [8, 14] was 4 µg/mL (≈ 9.19 µM), the MIC [9, 11] was > 16 µg/mL and the MIC [9, 12] was > 16 µg/mL. For the same compound, the MIC [9, 13] was > 16 µg/mL, the MIC [9, 14] was > 16 µg/mL and the MIC [10, 11] was 8 µg/mL (≈ 18.4 µM). It also gave an MIC [10, 12] of 4 µg/mL (≈ 9.19 µM), an MIC [10, 13] of 2 µg/mL (≈ 4.59 µM) and an MIC [10, 14] of 1 µg/mL (≈ 2.3 µM).
